Experimental data published in patent EP0361301A1, “Microbicidal compositions for the disinfection of dental impression materials” (Merz & Co. GmbH & Co., priority 1988, dated 1990).

Test system: Human Immunodeficiency Virus (HIV bzw. auch HTLV III oder LAV)
Test: HIV inactivation in suspension test versus 0.7 % formaldehyde
Details: 0,7%ig
Excerpt: Die Wirksamkeit der erfindungsgemässen Zubereitungen gegen den eine AIDS-Infektion verursachenden Human Immunodeficiency Virus (HIV bzw. auch HTLV III oder LAV) im Vergleich zu 0,7%igem Formaldehyd ergab eine um eine Zehnerpotenz höhere Inaktivierung des HIV bei 1%iger Konzentration der erfindungsgemässen Zubereitung 1 in nur 5 Minuten.

C=O [Formaldehyd]
toxischer Effekt im Suspensionsversuch: toxischen Effektes
